Here are results for 17 compounds from patent US8163793B2, “Proline derivatives” (Hoffman-La Roche Inc., priority 2009, dated 2012).

One assay has as its target Cat L (UniProt P07711). Nature of the assay: Cathepsin enzyme inhibition assay (fluorogenic peptide substrate Z-Val-Val-Arg-AMC), Cathepsin L. It is filed as biochemical, human and mouse. Particulars: enzyme 1 nM, substrate 20 μM, pH 6.5; read-out: CatL IC50. The gist of the method:
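Cathepsin L at 1 nM was mixed with compound, then started with 20 μM Z-Val-Val-Arg-AMC in pH 6.5 potassium phosphate with EDTA, Triton X-100 and 5 mM DTT. AMC fluorescence (ex 360/em 465 nm) was followed over 20 min. IC50 is given in μM.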

The target in another assay is Cathepsin S (UniProt P25774). Kind of assay: Cathepsin enzyme inhibition assay (fluorogenic peptide substrate Z-Val-Val-Arg-AMC), Cathepsin S. It is filed as biochemical, human and mouse. Particulars: enzyme 1 nM, substrate 20 μM, pH 6.5; read-out: CatS IC50. The method, boiled down:
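Human or mouse cathepsin S (1 nM) was run in 100 mM potassium phosphate pH 6.5 with 5 mM EDTA, 0.001% Triton X-100 and 5 mM DTT. The rise in AMC fluorescence from cleavage was measured, and IC50 values were calculated by standard methods and expressed in μM.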

Molecules are shown by their SMILES.

What is called IC50 is the point on the concentration scale where inhibition reaches its midpoint. Consider `N#CC1(NC(=O)[C@@H]2C[C@@H](S(=O)(=O)c3ccccc3Cl)CN2C(=O)C2(Oc3ccc(Cl)cc3)CC2)CC1` [Example 473, (2S,4R)-4-(2-Chloro-benzenesulfonyl)-1-[1-(4-chloro-phenoxy)-cyclopropanecarbonyl]-pyrrolidine-2-carboxylic acid (1-cyano-cyclopropyl)-amide], for which the values for the IC50 on Cat L and at Cathepsin S were 4410 nM and 70 nM, respectively.

For the compound `Cc1cc(N2C[C@H](S(=O)(=O)c3ccccc3Cl)C[C@H]2C(=O)NC2(C#N)CC2)n(CCCc2ccccc2)n1` [Example 474, (2S,4R)-4-(2-Chloro-benzenesulfonyl)-1-[5-methyl-2-(3-phenyl-propyl)-2H-pyrazol-3-yl]-pyrrolidine-2-carboxylic acid (1-cyano-cyclopropyl)-amide], the figures for the IC50 on Cat L and at Cathepsin S were 1540 nM and 2.4 nM, respectively.

As for `Cc1cc(N2C[C@H](S(=O)(=O)c3ccccc3Cl)C[C@H]2C(=O)NC2(C#N)CC2)n(Cc2cncn2C)n1` [Example 476, (2S,4R)-4-(2-Chloro-benzenesulfonyl)-1-[5-methyl-2-(3-methyl-3H-imidazol-4-ylmethyl)-2H-pyrazol-3-yl]-pyrrolidine-2-carboxylic acid (1-cyano-cyclopropyl)-amide], the IC50 was 4760 nM at Cat L and 6.6 nM at Cathepsin S.

Turning to `Cc1cc(N2C[C@H](S(=O)(=O)c3ccccc3Cl)C[C@H]2C(=O)NC2(C#N)CC2)n(C2CCCCC2)n1` [Example 477, (2S,4R)-4-(2-Chloro-benzenesulfonyl)-1-(2-cyclohexyl-5-methyl-2H-pyrazol-3-yl)-pyrrolidine-2-carboxylic acid (1-cyano-cyclopropyl)-amide], the IC50 on Cat L was 318 nM; on Cathepsin S, 0.6 nM.

For the compound `Cc1cc(N2C[C@H](S(=O)(=O)c3ccccc3Cl)C[C@H]2C(=O)NC2(C#N)CC2)n(C2CCOCC2)n1` [Example 478, (2S,4R)-4-(2-Chloro-benzenesulfonyl)-1-[5-methyl-2-(tetrahydro-pyran-4-yl)-2H-pyrazol-3-yl]-pyrrolidine-2-carboxylic acid (1-cyano-cyclopropyl)-amide], the IC50 at Cat L turned out to be 3670 nM; on Cathepsin S, 3.1 nM.

On to `Cc1cc(N2C[C@H](S(=O)(=O)c3ccccc3Cl)C[C@H]2C(=O)NC2(C#N)CC2)n(C2CCS(=O)(=O)CC2)n1` [Example 479, (2S,4R)-4-[(2-Chlorophenyl)sulfonyl]-N-(1-cyanocyclopropyl)-1-[1-(1,1-dioxidotetrahydro-2H-thiopyran-4-yl)-3-methyl-1H-pyrazol-5-yl]-L-prolinamide], for which the IC50 stood at 3070 nM at Cat L and 3.24 nM at Cathepsin S.

Take `Cc1cc(N2C[C@H](S(=O)(=O)c3ccc(OCC(F)(F)F)cc3Cl)C[C@H]2C(=O)NC2(C#N)CC2)n(C2CCC2)n1` [Example 480, (2S,4R)-4-[2-Chloro-4-(2,2,2-trifluoro-ethoxy)-benzenesulfonyl]-1-(2-cyclobutyl-5-methyl-2H-pyrazol-3-yl)-pyrrolidine-2-carboxylic acid (1-cyano-cyclopropyl)-amide]: the results for the IC50 at Cat L and on Cathepsin S were 5360 nM and 1.05 nM, respectively.

With `Cc1cc(N2C[C@H](S(=O)(=O)c3ccc(N4CCN(C(C)(C)C)CC4)cc3Cl)C[C@H]2C(=O)NC2(C#N)CC2)n(C2CCOCC2)n1` [Example 481, (2S,4R)-4-[4-(4-tert-Butyl-piperazin-1-yl)-2-chloro-benzenesulfonyl]-1-[5-methyl-2-(tetrahydro-pyran-4-yl)-2H-pyrazol-3-yl]-pyrrolidine-2-carboxylic acid (1-cyano-cyclopropyl)-amide], the IC50 on Cat L stood at 1270 nM; on Cathepsin S, 0.6 nM.

For `Cc1cc(N2C[C@H](S(=O)(=O)c3ccc(OCC(F)(F)F)cc3Cl)C[C@H]2C(=O)NC2(C#N)CC2)n(C2CCOCC2)n1` [Example 482, (2S,4R)-4-[2-Chloro-4-(2,2,2-trifluoro-ethoxy)-benzenesulfonyl]-1-[5-methyl-2-(tetrahydro-pyran-4-yl)-2H-pyrazol-3-yl]-pyrrolidine-2-carboxylic acid (1-cyano-cyclopropyl)-amide], the half-inhibitory concentration (IC50) was determined as 2710 nM on Cat L and 0.765 nM at Cathepsin S.

Regarding `Cc1cc(N2C[C@H](S(=O)(=O)c3ccc(N4CC(F)(F)C4)cc3Cl)C[C@H]2C(=O)NC2(C#N)CC2)n(CCc2ccccc2)n1` [Example 483, (2S,4R)-4-[2-Chloro-4-(3,3-difluoro-azetidin-1-yl)-benzenesulfonyl]-1-(5-methyl-2-phenethyl-2H-pyrazol-3-yl)-pyrrolidine-2-carboxylic acid (1-cyano-cyclopropyl)-amide], the IC50 on Cat L was found to be 521 nM; on Cathepsin S, 1.34 nM.

As for `Cc1cc(N2C[C@H](S(=O)(=O)c3ccc(OCC(F)(F)F)cc3Cl)C[C@H]2C(=O)NC2(C#N)CC2)n(CCc2ccccc2)n1` [Example 484, (2S,4R)-4-[2-Chloro-4-(2,2,2-trifluoro-ethoxy)-benzenesulfonyl]-1-(5-methyl-2-phenethyl-2H-pyrazol-3-yl)-pyrrolidine-2-carboxylic acid (1-cyano-cyclopropyl)-amide], the IC50 was 1550 nM at Cat L and 3.31 nM on Cathepsin S.

For `Cc1cc(N2C[C@H](S(=O)(=O)c3ccc(N4CCN(C(C)(C)C)CC4)cc3Cl)C[C@H]2C(=O)NC2(C#N)CC2)n(CCc2ccccc2)n1` [Example 485, (2S,4R)-4-[4-(4-tert-Butyl-piperazin-1-yl)-2-chloro-benzenesulfonyl]-1-(5-methyl-2-phenethyl-2H-pyrazol-3-yl)-pyrrolidine-2-carboxylic acid (1-cyano-cyclopropyl)-amide], the IC50 worked out at 275 nM on Cat L and 0.9 nM at Cathepsin S.

With `N#CC1(NC(=O)[C@@H]2C[C@@H](S(=O)(=O)c3ccccc3Cl)CN2c2nc(Cl)ns2)CC1` [Example 486, (2S,4R)-4-(2-Chloro-benzenesulfonyl)-1-(3-chloro-[1,2,4]thiadiazol-5-yl)-pyrrolidine-2-carboxylic acid (1-cyano-cyclopropyl)-amide], the IC50 came out at 22000 nM at Cat L and 0.85 nM on Cathepsin S.

Take `COCCOc1ccc(S(=O)(=O)[C@@H]2C[C@@H](C(=O)NC3(C#N)CC3)N(c3cc(C)nn3C3CCOCC3)C2)c(Cl)c1` [Example 488, (2S,4R)-4-[2-Chloro-4-(2-methoxy-ethoxy)-benzenesulfonyl]-1-[5-methyl-2-(tetrahydro-pyran-4-yl)-2H-pyrazol-3-yl]-pyrrolidine-2-carboxylic acid (1-cyano-cyclopropyl)-amide]: the IC50 was found to be 3880 nM on Cat L and 2.5 nM on Cathepsin S.

`COCCOc1ccc(S(=O)(=O)[C@@H]2C[C@@H](C(=O)NC3(C#N)CC3)N(c3cc(C)nn3C3CCC3)C2)c(Cl)c1` [Example 489, (2S,4R)-4-[2-Chloro-4-(2-methoxy-ethoxy)-benzenesulfonyl]-1-(2-cyclobutyl-5-methyl-2H-pyrazol-3-yl)-pyrrolidine-2-carboxylic acid (1-cyano-cyclopropyl)-amide]: the IC50 at Cat L was found to be 3540 nM; at Cathepsin S it was 0.51 nM.

For the compound `Cc1cc(N2C[C@H](S(=O)(=O)c3ccc(-n4cccn4)cc3Cl)C[C@H]2C(=O)NC2(C#N)CC2)n(C2CCOCC2)n1` [Example 490], the IC50 at Cat L was 4330 nM; at Cathepsin S, 0.94 nM.

As to `Cc1cc(N2C[C@H](S(=O)(=O)c3ccc(-n4cccn4)cc3Cl)C[C@H]2C(=O)NC2(C#N)CC2)n(C2CCC2)n1` [Example 491, (2S,4R)-4-(2-Chloro-4-pyrazol-1-yl-benzenesulfonyl)-1-(2-cyclobutyl-5-methyl-2H-pyrazol-3-yl)-pyrrolidine-2-carboxylic acid (1-cyano-cyclopropyl)-amide], the figures for the IC50 on Cat L and on Cathepsin S were 5280 nM and 0.655 nM, respectively.
